In PMC8780828 (Viruses, 2021):
Read-outs that look alike come from different tables or passages of the source.

What was measured:
in vitro = settings: human, Caco-2, A-to-B Papp (cell batch quality control)
[1] = system: pseudovirus NL4-3ΔEnv-NanoLuc/SARS-CoV-2; experiment: organism not typed; type: cell-based; settings: HT-1080; n=3
[2] = system: pseudovirus NL4-3ΔEnv-NanoLuc/SARS-CoV-2; experiment: organism not typed; type: cell-based; settings: A549-ACE2; n=3
[3] = system: pseudovirus NL4-3ΔEnv-NanoLuc/SARS-CoV; experiment: microbe, parasite or virus in culture; type: cell-based; settings: Severe acute respiratory syndrome coronavirus, HT-1080
[4] = system: pseudovirus NL4-3ΔEnv-NanoLuc/SARS-CoV; experiment: microbe, parasite or virus in culture; type: cell-based; settings: Severe acute respiratory syndrome coronavirus, A549-ACE2
[5] = system: pseudovirus NL4-3ΔEnv-NanoLuc/MERS-CoV; experiment: microbe, parasite or virus in culture; type: cell-based; settings: Middle East respiratory syndrome-related coronavirus, Huh-7
[6] = system: pseudovirus NL4-3ΔEnv-NanoLuc/MERS-CoV; experiment: microbe, parasite or virus in culture; type: cell-based; settings: Middle East respiratory syndrome-related coronavirus, MRC5
[7] = system: control pseudovirus NL4-3.Luc.R-E-/A-MLV; experiment: Control pseudovirus A-MLV assay in 293T/ACE2 cells; type: cell-based, amphotropic murine leukemia virus (A-MLV); settings: NL43, 293T/ACE2
[8] = system: NL4-3ΔEnv-NanoLuc/SARS-CoV-2; experiment: organism not typed; type: cell-based; settings: for IC50: read-out: IC50 (range over the three cell lines)
[9] = target: SARS-CoV-2 spike S1 subunit protein (Severe acute respiratory syndrome coronavirus 2, UniProt P0DTC2); type: binding
[10] = system: pseudovirus NL4-3ΔEnv-NanoLuc/SARS-CoV-2; experiment: SARS-CoV-2 pseudovirus assay with pre-treated 293T/ACE2 cells; type: cell-based; settings: 293T/ACE2 cells pre-treated with compound 30 min before infection
[11] = system: SARS-CoV-2 (US_WA-1/2020); type: cell-based
β-lactamase = type: biochemical
Trypsin = type: biochemical
[12] = target: malate dehydrogenase (MDH); type: biochemical
[13] = rat, in vivo
in vivo = settings: female, Sprague Dawley, rat; for MRT inf: MRT0-inf_obs
[14] = system: pseudovirus NL4-3ΔEnv-NanoLuc/SARS-CoV-2; experiment: organism not typed; type: cell-based; settings: 293T/ACE2
[15] = system: pseudovirus NL4-3ΔEnv-NanoLuc/SARS-CoV; experiment: microbe, parasite or virus in culture; type: cell-based; settings: Severe acute respiratory syndrome coronavirus, 293T/ACE2; n=3
MERS-CoV pseudovirus = experiment: microbe, parasite or virus in culture; type: cell-based
[16] = female, Sprague Dawley, iv, 5 mg/kg

SMILES: C[C@H]1O[C@@H](O[C@H]2[C@@H](O)C[C@H](O[C@H]3[C@@H](O)C[C@H](O[C@H]4CC[C@@]5(C)[C@H](CC[C@@H]6[C@@H]5C[C@@H](O)[C@]5(C)[C@@H](C7=CC(=O)OC7)CC[C@]65O)C4)O[C@@H]3C)O[C@@H]2C)C[C@H](O)[C@@H]1O [Digoxin, reference compound]
- Papp A→B (in vitro): 0.34 ×10⁻⁶ cm/s

SMILES: O=C(O)c1cccc(-c2ccc(/C=C3\SC(=S)N(CCc4ccccc4)C3=O)o2)c1 [NBCoV2]
- IC50 [1]: 25.3 ± 0.6 nM
- IC50 [2]: 58 ± 1.7 nM
- IC50 [3]: 19.3 ± 1.1 nM
- IC50 [4]: 111 ± 9 nM
- IC50 [5]: 112 ± 7 nM
- IC50 [6]: 77 nM
- IC50 [7]: 783 ± 76 nM
- IC100 (range of IC100 values detected in the three cell lines) [8]: 0.3 to 1 µM
- IC50 [8]: 22.8 to 58 nM
- kd [9]: 0.0251 s⁻¹
- IC50 [10]: > 2000 nM
- IC100 [11]: > 10 µM
- IC50 (β-lactamase): > 2000 nM
- IC50 (Trypsin): > 2000 nM
- IC50 [12]: > 2000 nM
- CLobs [13, 16]: 0.00027 (mg/kg)/(ng/mL)/h
- Vss_obs [13, 16]: 0.0014 (mg/kg)/(ng/mL)
- AUC0-t ([13]; iv, 5 mg/kg): 18,074.45 ng/mL ∗ h
- AUC0-t ([13]; po, 10 mg/kg): 318.78 ng/mL ∗ h
- Vz/F_obs ([13]; po, 10 mg/kg): 0.1759 (mg/kg)/(ng/mL)
- bioavailability (in vivo; F% (bioavailability)): 0.9%
- C0 (in vivo; iv, 5 mg/kg): 1710 ng/mL
- Tmax (in vivo; iv, 5 mg/kg): 2 h
- Cmax (in vivo; iv, 5 mg/kg): 2220 ng/mL
- MRT inf (in vivo; iv, 5 mg/kg): 5.09 h
- half-life (in vivo; iv, 5 mg/kg, t1/2): 211 min
- Tmax (in vivo; po, 10 mg/kg): 4 h
- Cmax (in vivo; po, 10 mg/kg): 30.1 ng/mL
- MRT inf (in vivo; po, 10 mg/kg): 7.28 h
- half-life (in vivo; po, 10 mg/kg, t1/2): 238 min
- half-life (in vivo; t1/2 (range PO and IV)): 210 to 234 min

SMILES: O=C(O)c1cc(-c2ccc(/C=C3\SC(=S)N(CCc4ccccc4)C3=O)o2)ccc1F [NBCoV3]
- IC50 [14]: 60.1 ± 8.5 nM
- IC50 [1]: 64 ± 18 nM
- IC50 [2]: 120 ± 5 nM
- IC50 [15]: 17.8 ± 4 nM
- IC50 ([3]; n=3, read-out: IC50): 25.7 ± 0.6 nM
- IC50 ([4]; n=3, read-out: IC50): 157 ± 12.5 nM
- IC50 ([5]; n=3, read-out: IC50): 158 ± 14 nM
- IC50 ([6]; n=3, read-out: IC50): 123 ± 17 nM
- IC50 [7]: 960 ± 57 nM
- IC100 (range of IC100 values detected in the three cell lines) [8]: 0.5 to 1.2 µM
- IC50 [8]: 60.1 to 120 nM
- IC50 [10]: > 2000 nM
- IC100 [11]: > 10 µM
- IC50 (β-lactamase): > 2000 nM
- IC50 (Trypsin): > 2000 nM
- IC50 [12]: > 2000 nM

SMILES: Cc1ccc(-c2ccc(/C=C3\SC(=S)N(CCc4ccccc4)C3=O)o2)cc1C(=O)O [NBCoV4]
- IC50 [14]: 26 ± 1 nM
- IC50 [1]: 47.7 ± 16 nM
- IC50 [2]: 73 ± 4.1 nM
- IC50 [15]: 80 ± 2 nM
- IC50 ([3]; n=3, read-out: IC50): 54 ± 3.5 nM
- IC50 ([4]; n=3, read-out: IC50): 100 ± 13 nM
- IC50 ([5]; n=3, read-out: IC50): 131 ± 6 nM
- IC50 ([6]; n=3, read-out: IC50): 80 ± 18 nM
- IC50 [7]: 1620 ± 115 nM
- IC100 (range of IC100 values detected in the three cell lines) [8]: 0.3 to 1 µM
- IC50 [8]: 26 to 73 nM
- IC50 [10]: > 2000 nM
- IC100 [11]: > 10 µM
- IC50 (β-lactamase): > 2000 nM
- IC50 (Trypsin): > 2000 nM
- IC50 [12]: > 2000 nM

SMILES: Cc1c(C(=O)O)cccc1-c1ccc(/C=C2\SC(=S)N(CCc3ccccc3)C2=O)o1 [NBCoV5]
- IC50 [14]: 1200 ± 240 nM
- IC50 [1]: 1050 ± 252 nM
- IC50 [2]: > 2000 nM
- IC50 [15]: 1850 ± 179 nM
- IC50 ([3]; n=3, read-out: IC50): 1760 ± 330 nM
- IC50 ([4]; n=3, read-out: IC50): > 2000 nM
- IC50 ([5]; n=3, read-out: IC50): > 2000 nM
- IC50 ([6]; n=3, read-out: IC50): > 2000 nM
- IC50 [7]: > 2000 nM
- IC100 (range of IC100 values detected in the three cell lines) [8]: >2 µM
- IC50 [10]: > 2000 nM
- IC100 [11]: > 10 µM
- IC50 (β-lactamase): > 2000 nM
- IC50 (Trypsin): > 2000 nM
- IC50 [12]: > 2000 nM
- MERS-CoV inhibitory activity (MERS-CoV pseudovirus): no MERS-CoV inhibitory activity

SMILES: CCc1ccc(-c2ccc(/C=C3\SC(=S)N(CCc4ccccc4)C3=O)o2)cc1C(=O)O [NBCoV6]
- IC50 [14]: 185 ± 5.8 nM
- IC50 [1]: 245 ± 5 nM
- IC50 [2]: 613 ± 72 nM
- IC50 [15]: 175 ± 7 nM
- IC50 ([3]; n=3, read-out: IC50): 133 ± 9.5 nM
- IC50 ([4]; n=3, read-out: IC50): 867 ± 62 nM
- IC50 ([5]; n=3, read-out: IC50): 569 ± 31 nM
- IC50 ([6]; n=3, read-out: IC50): 945 ± 77 nM
- IC50 [7]: > 2000 nM
- IC100 (range of IC100 values detected in the three cell lines) [8]: 1 to 3 µM
- IC50 [10]: > 2000 nM
- IC100 [11]: > 10 µM

SMILES: O=C(O)c1cccc(-c2ccc(/C=C3\SC(=S)N(CCc4ccccc4)C3=O)o2)c1F [NBCoV7]
- IC50 [14]: 298 ± 60 nM
- IC50 [1]: 290 ± 57 nM
- IC50 [2]: 416 ± 25 nM
- IC50 [15]: 111 ± 1.7 nM
- IC50 ([3]; n=3, read-out: IC50): 52 ± 8.9 nM
- IC50 ([4]; n=3, read-out: IC50): 271 ± 76 nM
- IC50 ([5]; n=3, read-out: IC50): 933 ± 153 nM
- IC50 ([6]; n=3, read-out: IC50): 927 ± 63.5 nM
- IC50 [7]: > 2000 nM
- IC100 (range of IC100 values detected in the three cell lines) [8]: 1 to 3 µM
- IC50 [10]: > 2000 nM
- IC100 [11]: > 10 µM

SMILES: O=C(O)c1cc(-c2ccc(/C=C3\SC(=S)N(CCc4ccccc4)C3=O)o2)ccc1Br [NBCoV8]
- IC50 [14]: 65.8 ± 6.2 nM
- IC50 [1]: 94 ± 9 nM
- IC50 [2]: 254 ± 27 nM
- IC50 [15]: 128 ± 6.7 nM
- IC50 ([3]; n=3, read-out: IC50): 225 ± 26 nM
- IC50 ([4]; n=3, read-out: IC50): 700 ± 70 nM
- IC50 ([5]; n=3, read-out: IC50): 509 ± 43 nM
- IC50 ([6]; n=3, read-out: IC50): 559 ± 66 nM
- IC50 [7]: > 2000 nM
- IC100 (range of IC100 values detected in the three cell lines) [8]: 1 to 2.5 µM
- IC50 [10]: > 2000 nM
- IC100 [11]: > 10 µM
